Assay results as given in patent US6844366B2, “Sulfonamide hydroxamates” (Syntex (U.S.A.) LLC, priority 1998, dated 2005).

| SMILES | melting point |
| --- | --- |
| COc1cc(C)c(S(=O)(=O)N(Cc2ccc3c(c2)OCO3)[C@H](CNS(C)(=O)=O)C(=O)NO)c(C)c1 [Compound 128, N-hydroxy-2(R)-[(3,4-methylendioxybenzyl)-(2,6-dimethyl-4-methoxybenzenesulfonyl)amino]-3-(methanesulfonyl)amino-propionamide] | 98 to 102 °C |
| COC(=O)c1ccc(C(=O)NC[C@H](C(=O)NO)N(Cc2ccc3c(c2)OCO3)S(=O)(=O)c2c(C)cc(OC)cc2C)cc1 [Compound 133, N-hydroxy-2(R)-[(3,4-methylendioxybenzyl)-(2,6-dimethyl-4-methoxybenzenesulfonyl)amino]-3-(4-methoxycarbonyl-benzoyl)amino-propionamide] | 119 to 124 °C |
| COc1cc(C)c(S(=O)(=O)N(Cc2ccc3c(c2)OCO3)[C@H](CNS(=O)(=O)c2ccccc2)C(=O)NO)c(C)c1 [Compound 129, N-hydroxy-2(R)-[(3,4-methylendioxybenzyl)-(2,6-dimethyl-4-methoxybenzenesulfonyl)amino]-3-benzenesulfonylamino-propionamide] | 103 to 107 °C |

Other lines, results leading:

| melting point | SMILES |
| --- | --- |
| 117 to 121 °C | COc1cc(C)c(S(=O)(=O)N(Cc2ccc3[nH]ccc3c2)[C@@H](C(=O)NO)C(C)C)cc1C [Compound 145, N-hydroxy-2(R)-2-[(1H-indol-5-ylmethyl)-(4-methoxy-2,5-dimethylbenzenesulfonyl)-amino]-3-methylbutyramide] |
| 95 to 105 °C | COc1cc(C)c(S(=O)(=O)N(Cc2ccc3c(c2)OCO3)[C@@H](C(=O)NO)[C@H](C)O)c(C)c1C [Compound 87, N-hydroxy-2(R)-[(3,4-methylenedioxybenzyl)-(4-methoxy-2,3,6-trimethylbenzenesulfonyl)amino]-3(S)-hydroxybutyramide] |
| 164 to 165 °C | COC(=O)c1ccc(CN([C@@H](C(=O)NO)C(C)C)S(=O)(=O)c2ccc(OC)cc2)cc1 [Compound 21, N-Hydroxy-2(R)-[(4-methoxycarbonylbenzyl)-(4-methoxybenzenesulfonyl)amino]-3-methylbutyramide] |
| 163 to 171 °C | COc1cc(C)c(S(=O)(=O)N(Cc2ccc3[nH]cc(C(C)=O)c3c2)[C@@H](C(=O)NO)C(C)C)c(C)c1C [Compound 126, N-hydroxy-2(R)-[(1H-3-acetyl-indol-5-ylmethyl)-(4-methoxy-2,3,6-trimethylbenzenesulfonyl)amino]-3-methylbutyramide] |
